Results reported in patent US9937250B2, “Immunogenic tumor associated stromal cell antigen peptides and methods of their use” (University of Pittsburgh—Of the Commonwealth System of …, priority 2011, dated 2018).

How the values were obtained:
[1] = test system: CD8+ T cells from HLA-A2+ normal donors or HLA-A2+ melanoma patients; assay: In vitro sensitization of human CD8+ T cells with TASA peptide-pulsed autologous DC, IFN-γ ELISA against peptide-pulsed T2 cells; type: cell-based; conditions: response = IFN-γ >30 pg/ml and >2 fold HIV-nef control; for Specific CD8+ T Cell Response, HLA-A2+ Normal Donors (of 8): number of responding donors of 8; for Specific CD8+ T Cell Response, HLA-A2+ Melanoma Patients (of 10): number of responding patients of 10
Procedure: The indicated peptides were pulsed onto autologous DC and used to prime and boost CD8^+ T cells isolated from the peripheral blood of eight normal HLA-A2^+ donors or ten HLA-A2^+ patients with melanoma. Seven days after the primary in vitro sensitization (IVS) (melanoma patients) or a secondary IVS boost (normal donors), T cells were analyzed for their reactivity against HLA-A2^+ T2 cells pulsed with the relevant peptide vs. the negative control HIV-nef190-198 peptide. After 24 hours of co-culture, cell-free supernatants were analyzed for levels of secreted IFN-γ using a commercial ELISA. Data are reported in Bar and Whisker plots, with p-values provided for paired pre- versus post-IVS data from normal donors and patients. In addition, p<0.05 was detected for MEL-Post versus ND-Post for the following peptides: DLK1 (309), NG2 (770), NG2 (2238), PDGFRβ (891) and RGS5 (5).
In vitro assessment of human CD8^+ T cell responses against TASA- or TAA-derived peptides. Peripheral blood mononuclear cells (PBMC) were obtained by venipuncture or leukapheresis from HLA-A2^+ normal donors or HLA-A2^+ melanoma patients with written consent under IRB-approved protocols (Table 3). CD8^+ T cells were then isolated by MACS (Miltenyi Biotec, Auburn, Calif.) and either not stimulated or stimulated with autologous, TASA peptide-pulsed DC as previously described (Tatsumi et al., Cancer Res., 63:4481-4489, 2003). Normal donor T cells were stimulated with TASA peptide-pulsed DC twice on a weekly schedule, with responder T cells harvested for analysis of their specificity 5 days after the booster stimulation (i.e. day 12 of T cell-DC co-culture). Melanoma patient CD8^+ T cells were analyzed after a single round of stimulation with TASA peptide-pulsed, autologous DC (i.e. day 5 of T cell-DC co-culture) as indicated. For DC-based stimulations, DC were pulsed with an equimolar (1 μM each) pool of the TASA peptides (Table 4) for 4 h at 37° C. at 5% CO2 tension. These antigen-loaded DC were then used to stimulate autologous CD8^+ T cells at a T cell-to-DC ratio of 10:1 to generate a bulk population of responder T cells. T cells were maintained in IMDM media supplemented with 10% human AB serum, 100 U/ml penicillin, […], 10 mM L-glutamine and MEM non-essential amino acids (all reagents from Invitrogen, except human AB serum that was purchased from Sigma-Aldrich, St. Louis, Mo.). Responder CD8^+ T cells were analyzed for reactivity against control (HLA-A2^+) T2 cells or T2 cells pulsed with individual TASA or TAA peptides (1 μM for 4 h at 37° C.) at a CD8^+ T cell-to-T2 cell ratio of 5:1 for 24 h. Harvested cell-free supernatants were consequently assessed for hIFN-γ content using a specific ELISA (BD Biosciences, San Diego, Calif.) with a lower detection limit of 4.7 pg/ml.
CD8^+ T cells from HLA-A2^+ normal donors or HLA-A2^+ melanoma patients recognize TASA-derived peptides in vitro. To assess whether the TASA-derived peptides identified in the HHD tumor model were also capable of being recognized by human CD8^+ T cells, IVS was performed using T cells isolated from the peripheral blood of HLA-A2^+ donors or HLA-A2^+ patients with melanoma. DC were pulsed with peptides derived from a given TASA for 4 h at 37° C., then washed and used as stimulator cells for autologous CD8^+ T cells. In cases where more than one peptide existed for a given protein, DC were pulsed with an equimolar (10 μM) mixture of each peptide. Two rounds of IVS using TASA for normal donors and a single-round of IVS using TASA for melanoma patients was applied. HLA-A2^+ normal donors (FIG. 4; Tables 4, 5A and 5B) and melanoma patients (FIG. 4; Tables 4, 5A and 5B) were each capable of recognizing many of the TASA-derived peptides.

CD8+ splenocytes = assay: Tc1 response to DC.IL12/peptide vaccination (splenic CD8+ T cell IFN-γ ELISA against peptide-pulsed T2 cells); type: in vivo, HHD mice; conditions: DC.IL12 pulsed with peptide(s), two s.c. vaccinations; versus DC only
Text: FIGS. 9A-9B show a series of graphs illustrating induction of specific/protective CD8^+ T cells reactive against TASA as a consequence of DC/peptide-based vaccination. In FIG. 9A, HHD mice (five animals/cohort) were vaccinated twice (d-14, d-7) subcutaneously with PBS or with isologous DC.IL12 pulsed with PBS or synthetic peptides (Table 6) derived from the indicated TASA. In cases where more than 1 peptide was identified for a given target antigen, an equimolar pool of the indicated peptides (each 10 μM) was pulsed onto DC.IL12 and used for vaccination in the relevant cohort. One week after the second immunization, spleens were harvested and splenic CD8^+ T cells isolated using MACS-beads (Miltenyi). T cells were stimulated in vitro for 48 h using the HLA-A2^+ T2 cell line pulsed with relevant TASA vs. irrelevant HIV-nef190-198 ([…]; ref. 24) peptides. Cell-free supernatants were then recovered and IFN-γ levels by ELISA. Data are reported as mean+/−SD for triplicate ELISA determinations, and are representative of 3 independent experiments performed. *p<0.05 vs. HIV-nef control peptide responses. In FIG. 9B, HHD mice were vaccinated twice (days −14 and −7; right flank) subcutaneously with PBS or with isologous DC.IL12 pulsed with PBS or synthetic TASA peptides as indicated in FIG. 1A. In cases where more than 1 peptide is identified for a given target antigen, an equimolar pool of the indicated peptides (each 10 μM) was pulsed onto DC.IL12 and used for vaccination in the relevant cohort. One week after the booster vaccine (i.e. day zero), animals were challenged subcutaneously on their left flank with 2×10^6 MC38 colon carcinoma cells. Tumor growth was then monitored every 3-4 days through day 24. All data represent mean tumor area (in mm^2)+/−SD determined from 5 mice/cohort, and are representative of three independent experiments performed. *p<0.05 versus DC only on the indicated days.
Vaccine Experiments. For prophylactic experiments, HHD mice were immunized subcutaneously on the right flank with 100 μl PBS or PBS containing 10^6 syngenic DC.IL12 cells that had been untreated or pre-pulsed for 4 h at 37° C. with 10 μM synthetic peptide(s). Immunizations occurred on days −14 and −7, with mice subsequently receiving injections of MC38 (2×10^6) tumor cells in the left flank on d0. In all cases, treatment groups contained 5 mice per cohort. For analysis of tumor cellular composition in repeat experiments, MC38 tumors were isolated by surgical resection 10 days after tumor inoculation and prepared for fluorescence imaging, as described below. […] Mice were then untreated or treated with control, syngenic DC.IL12 or DC.IL12 (10^6 cells injected subcutaneously in the left flank on days 7 and 14) pulsed with synthetic TBVA peptides. In some assays, as indicated, in vivo antibody depletions (on days 6, 13 and 20 post-tumor inoculation to assess early involvement or on days 60 and 67 or 180 and 187 to assess late involvement) of protective CD4^+ T cells or CD8^+ T cells were performed and monitored as previously described (Zhao et al., Mol Ther., 19:805-814, 2011). In all cases, tumor size (area) was monitored every 3-4 days and is reported as mean+/−SD in mm^2.
Evaluation of Specific CD8^+ T Cell Responses in HHD Mice. MACS (Miltenyi Biotec) CD8^+ splenocytes were harvested (from 3 mice/group) 7 days after the second round of DC-based vaccination (i.e. day 21 after tumor inoculation) and analyzed for reactivity against unpulsed T2 cells, TBVA peptide-pulsed T2 cells, or day 19 (flow-sorted) B16-derived PDGFRβ^+CD31^negH-2K^b(neg) pericytes or PDGFRβ^negCD31^+H-2K^b(neg) VEC isolated as previously described (Zhao et al., Mol Ther., 19:805-814, 2011). Where indicated, 10 μg of anti-HLA-A2 mAb BB7.2 or control anti-class II mAb L243 (both from ATCC, Manassas, Va.) were added to replicate co-culture wells. After 48 h, supernatants were analyzed for mIFN-γ content by specific ELISA (BD-Biosciences; lower detection limit=31.3 pg/ml). […]

Sequence | Specific CD8+ T Cell Response, HLA-A2+ Normal Donors (of 8) [1] | Specific CD8+ T Cell Response, HLA-A2+ Melanoma Patients (of 10) [1] | Tc1 Response to Peptide Vaccine (HHD) (CD8+ splenocytes)
GLLRFVTAV (listed as Homo sapiens) | 2 | 7 | + (+, p < 0.05 versus DC only)
GMLGMVSGL (listed as Homo sapiens) | 2 | 7 | + (+, p < 0.05 versus DC only)
RLTPGVHEL (listed as Homo sapiens) | 1 | 4 | + (+, p < 0.05 versus DC only)
DIWDGIPHV (listed as Homo sapiens) | 0 | 4 | + (+, p < 0.05 versus DC only)
TLADFDPRV (listed as Homo sapiens) | 2 | 6 | + (+, p < 0.05 versus DC only)
NMLGMLSGL (listed as Homo sapiens) | 0 | 0 | 
ILLWEIFTL (listed as Homo sapiens) | 2 | 1 | + (+, p < 0.05 versus DC only)
LLQERGVAYI (listed as Homo sapiens) | 0 | 2 | + (+, p < 0.05 versus DC only)
LILPLLFYL (listed as Homo sapiens) | 0 | 4 | + (+, p < 0.05 versus DC only)
VLLGAVCGV (listed as Homo sapiens) | 2 | 1 | + (+, p < 0.05 versus DC only)
TLSNLSFPV (listed as Homo sapiens) | 0 | 4 | 
RLLVVYPWT (listed as Homo sapiens) | 2 | 6 | + (+, p < 0.05 versus DC only)
ILGVLTSLV (listed as Homo sapiens) | 2 | 6 | + (+, p < 0.05 versus DC only)
VIAMFFWLL (listed as Homo sapiens) | 0 | 0 | + (+, p < 0.05 versus DC only)
FLNKCETWV (listed as Homo sapiens) | 2 | 4 | + (+, p < 0.05 versus DC only)
TLFWLLLTL (listed as Homo sapiens) | 1 | 3 | + (+, p < 0.05 versus DC only)
LLVPTCVFLV (listed as Homo sapiens) | 4 | 4 | + (+, p < 0.05 versus DC only)
YLQVDLRFL (listed as Homo sapiens) | 0 | 4 | 
RLLGNVLVCV (listed as Homo sapiens) | 1 | 1 | + (+, p < 0.05 versus DC only)
